Data reported in patent USRE47493E1, “Substituted bicyclic dihydropyrimidinones and their use as inhibitors of neutrophil elastase activity” (Boehringer Ingelheim International GmbH, priority 2014, dated 2019).

Experiments:
[1] = biological target: neutrophil elastase in human plasma (Homo sapiens (Human), UniProt P08246); experiment: Assay for the Determination of Neutrophil Elastase Inhibitory Activity in Human Plasma; type: biochemical; settings: neutrophil elastase enriched human plasma (zymosan-stimulated blood)
Description: Assay for the Determination of Neutrophil Elastase Inhibitory Activity in Human Plasma
Citrated blood from human healthy donors is mixed with zymosan suspension and incubated at room temperature. This leads to the stimulation of neutrophils and the release of neutrophil elastase into the plasma. The stimulated blood is centrifuged to generate the neutrophil elastase enriched plasma.
Preparation of Zymosan Working Solution:
• single 45 ml blood sample is taken into a 50 ml tube containing citrate (3.13%, 5 mL) and the tube is gently inverted 4 times. • Immediately after blood sampling, zymosan working solution (5 mL) is added. • After the addition of zymosan working solution, the tubes are capped, mixed gently and incubated at 22° C. for 15 min on a shaker at 20 rpm. • Make 10 ml aliquots after the incubation time. • Centrifuge the 15 ml tubes at 800 g for […] at 4° C. in a Jouan centrifuge. • Harvest the plasma and make 1-5 ml aliquots. • Store the plasma at −80° C.
Various concentrations of the neutrophil elastase inhibitor are incubated with plasma. Subsequently, the enzyme activity is measured using the fluorogenic substrate MeOSuc-Ala-Ala-Pro-Val-AMC (Bachem Cat. No. 1-1270, substrate concentration: 250 μM, pH 7.5, 25 mM TRIS buffer, 250 mM NaCl) in analogous fashion as described for the human neutrophil assay. A dose response curve is generated to calculate the EC50 of the inhibitor. The analysis of the data is performed by the calculation of the percentage of fluorescence in the presence of the test compound compared to the fluorescence of the vehicle control after subtracting the background fluorescence: An inhibitor of the neutrophil elastase enzyme will give values between 100% control (no inhibition) and 0% control (complete inhibition). The human plasma shift of selected compounds can be calculated using the following equation: Human plasma shift=(EC50 in human plasma assay)/(IC50 in human neutrophil elastase assay) The EC50 values of selected compounds in the human plasma assay described above are listed in Table 14.

[2] = Assay for the Determination of Metabolic Stability with Human Liver Microsomes; type: in vitro ADME; settings: pH 7.6; pooled human liver microsomes, 37° C., NADPH; read-out: t1/2 INVITRO
Description: Assay for the Determination of Metabolic Stability with Human Liver Microsomes
The metabolic degradation of the test compound is assayed at 37° C. with pooled human liver microsomes. The final incubation volume of […] per time point contains TRIS buffer pH 7.6 (0.1 M), magnesium chloride (5 mM), microsomal protein (1 mg/ml) and the test compound at a final concentration of […]. Following a short preincubation period at 37° C., the reactions are initiated by addition of beta-nicotinamide adenine dinucleotide phosphate, reduced form (NADPH, 1 mM) and terminated by transfering an aliquot into acetonitrile after different time points. Additionally, the NADPH-independent degradation is monitored in incubations without NADPH, terminated at the last time point. The rol remaining test compound after NADPH independent incubation is reflected by the parameter c(control) (metabolic stability). The quenched incubations are pelleted by centrifugation (10′000 g, 5 min) An aliquot of the supernatant is assayed by LC-MS/MS for the amount of parent compound.
The half-life (t1/2 INVITRO) is determined by the slope of the semilogarithmic plot of the concentration-time profile. The intrinsic clearance (CL_[…]) is calculated by considering the amount of protein in the incubation: CL_[…][μl/min/mg protein]=(ln 2/(half-life [min]*protein content [mg/ml]))*1′000.
The half-life (t1/2 INVITRO) values of selected compounds in the metabolic stability assay described above are listed in Table 15.

[3] = Assay for the Determination of Metabolic Stability with Human Hepatocytes; type: in vitro ADME; settings: scaled with well stirred model
Description: Assay for the Determination of Metabolic Stability with Human Hepatocytes
The metabolic degradation of the test compound is assayed in a human hepatocyte suspension. Human hepatocytes (typically cryopreserved) are incubated in an appropriate buffer system (e.g. Dulbecco's modified eagle medium plus 3.5 μg glucagon/500 mL, 2.5 mg insulin/500 mL and 3.75 mg/500 mL hydrocortison) containing 5% species serum. Following a (typically) […] preincubation in an incubator (37° C., 10% CO2), 5 μl of test compound solution (80 μM; from 2 mM stock solution in DMSO diluted 1:25 with medium) are added into 395 μl hepatocyte suspension (cell density in the range 0.25-5*10^6 cells/mL, typically 1*10^6 cells/mL; final concentration of test compound 1 μM, final DMSO concentration […]). The cells are incubated for six hours (incubator, orbital shaker) and samples (25 μl) are taken at 0, 0.5, 1, 2, 4 and 6 hours. Samples are transferred into acetonitrile and pelleted by centrifugation (5 min). The supernatant is transferred to a new 96-deepwell plate, evaporated under nitrogen and resuspended. The decline of parent compound is analyzed by LC-MS/MS.
The intrinsic clearance CL_[…] is calculated as follows: CL_[…]=Dose/AUC=(C0/CD)/(AUD+clast/k)*1′000/60 (C0: initial concentration in the incubation [μM], CD: cell density of vital cells [10^6 cells/mL], AUD: area under the data [μM*h], clast: concentration of last data point [μM], k: slope of the regression line for parent decline [h^−1])
The calculated in vitro hepatic intrinsic clearance can be scaled up to the intrinsic in vivo hepatic clearance and used to predict hepatic in vivo blood clearance (CL) by the use of a is liver model (well stirred model): CL_[…]_INVIVO [ml/min/kg]=(CL_[…] [μL/min/10^6 cells]* hepatocellularity[10^6 cells/g liver]*liver factor[g/kg bodyweight])/1′000 CL[ml/min/kg]=CL_[…]_INVIVO [ml/min/kg]*hepatic blood flow [ml/min/kg]/(CL_[…]_INVIVO [ml/min/kg]+hepatic blood flow [ml/min/kg]) Qh[%]=CL[ml/min/kg]/hepatic blood flow[ml/min/kg]) (Hepatocellularity, human: 120*10^6 cells/g liver; lver factor, human: 25.7 g/kg bodyweight; blood flow, human: 21 ml/(min*kg))
The predicted human hepatic in vivo blood clearance (CL) of selected compounds in the metabolic stability assay described above are listed in Table 16.

Sequence of neutrophil elastase in human plasma (P08246 30-267): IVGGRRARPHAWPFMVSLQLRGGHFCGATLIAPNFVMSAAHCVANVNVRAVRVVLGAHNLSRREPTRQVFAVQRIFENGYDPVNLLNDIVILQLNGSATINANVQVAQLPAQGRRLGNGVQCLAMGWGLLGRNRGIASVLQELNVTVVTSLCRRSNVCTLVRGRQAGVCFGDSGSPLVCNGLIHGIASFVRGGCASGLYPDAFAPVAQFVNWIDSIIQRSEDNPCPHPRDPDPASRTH

Compound | EC50 [1] [nM] | half-life at 1 nM [2] [h] | CL (predicted human hepatic in vivo blood clearance) [3] [mL/min/kg]
CS(=O)(=O)c1cc(C#N)ccc1[C@H]1NC(=O)N(c2cccc(C(F)(F)F)c2)C2=C1C(=O)CCC2 (single isomer, unassigned) [Example 18A] | 3 | > 2.17 | 0
CS(=O)(=O)c1cc(C#N)ccc1[C@H]1NC(=O)N(c2cccc(C(F)F)c2)C2=C1C(=O)CCC2 (single isomer, unassigned) [Example 19A] | 2 | > 2.17 | 0
CNC(=O)N1C(=O)N(c2cccc(C(F)(F)F)c2)C2=C(C(=O)CCC2)[C@H]1c1ccc(C#N)cc1S(C)(=O)=O (single isomer, unassigned) [Example 47A] | 1 | > 2.17 | 0
CCS(=O)(=O)c1cc(C#N)ccc1[C@H]1NC(=O)N(c2cccc(C(F)(F)F)c2)C2=C1C(=O)CCC2 (single isomer, unassigned) [Example 54A] | 1 | > 2.17 | 2
CC(C)(O)CNC(=O)N1C(=O)N(c2cccc(C(F)(F)F)c2)C2=C(C(=O)CCC2)C1c1ccc(C#N)cc1 (stereo not drawn) [Example 70.9] | 15 | > 2.17 | 0
